A word on the IC50: it is the concentration needed to halve the response being measured. By half-life is commonly meant how long it takes for the measured level to halve.

These results are taken from ChEMBL document CHEMBL1152136, “2-Trifluoroacetylthiophene oxadiazoles as potent and selective class II human histone deacetylase inhibitors” (Bioorg Med Chem Lett, 2008).

Series [1] concerns the target T1, Protein deacetylase HDAC6 (Homo sapiens, UniProt Q9UBN7).
T1 sequence (Q9UBN7 whole entry): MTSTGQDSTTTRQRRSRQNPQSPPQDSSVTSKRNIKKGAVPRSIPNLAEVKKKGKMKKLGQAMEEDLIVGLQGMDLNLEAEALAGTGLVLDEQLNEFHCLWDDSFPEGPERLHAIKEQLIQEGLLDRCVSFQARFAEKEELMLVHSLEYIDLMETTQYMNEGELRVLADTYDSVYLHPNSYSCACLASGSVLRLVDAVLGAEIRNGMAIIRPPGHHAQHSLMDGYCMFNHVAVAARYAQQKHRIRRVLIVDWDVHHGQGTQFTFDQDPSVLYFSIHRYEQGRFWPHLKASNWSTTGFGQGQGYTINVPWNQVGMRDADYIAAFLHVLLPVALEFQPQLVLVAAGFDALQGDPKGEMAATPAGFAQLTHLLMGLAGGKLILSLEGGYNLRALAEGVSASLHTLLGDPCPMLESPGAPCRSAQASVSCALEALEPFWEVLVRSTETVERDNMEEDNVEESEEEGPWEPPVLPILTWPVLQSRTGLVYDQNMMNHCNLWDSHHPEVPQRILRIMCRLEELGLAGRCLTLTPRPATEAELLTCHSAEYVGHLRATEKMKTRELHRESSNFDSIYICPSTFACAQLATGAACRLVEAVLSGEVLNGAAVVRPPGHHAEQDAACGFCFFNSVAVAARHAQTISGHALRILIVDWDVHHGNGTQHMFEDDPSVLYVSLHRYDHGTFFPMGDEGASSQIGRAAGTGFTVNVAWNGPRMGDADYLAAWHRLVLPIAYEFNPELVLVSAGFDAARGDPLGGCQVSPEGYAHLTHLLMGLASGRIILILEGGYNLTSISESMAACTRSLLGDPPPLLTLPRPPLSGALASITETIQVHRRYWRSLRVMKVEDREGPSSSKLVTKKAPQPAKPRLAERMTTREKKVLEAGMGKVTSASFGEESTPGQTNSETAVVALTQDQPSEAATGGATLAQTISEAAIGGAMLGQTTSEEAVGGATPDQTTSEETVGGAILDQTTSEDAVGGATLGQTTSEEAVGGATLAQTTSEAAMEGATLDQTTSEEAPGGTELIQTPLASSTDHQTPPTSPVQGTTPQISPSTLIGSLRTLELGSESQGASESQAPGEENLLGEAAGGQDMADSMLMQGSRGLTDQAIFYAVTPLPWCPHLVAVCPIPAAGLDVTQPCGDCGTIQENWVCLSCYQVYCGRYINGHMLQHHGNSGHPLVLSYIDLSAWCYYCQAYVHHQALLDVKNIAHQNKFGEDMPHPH
Nature of the series: Inhibition of HDAC6.

Series [2] is described as follows: Selectivity for His-tagged HDAC4 catalytic domain over HDAC1.
Series [3] can be described thus: Metabolic stability in S9 fraction of human HCT116 cells assessed as half life in presence of NADPH and regenerating system. It is filed as ADME, cell-based, HCT-116.
Series [4] concerns the target Histone deacetylase 4 (Homo sapiens, UniProt P56524). Put plainly: Inhibition of His-tagged HDAC4 catalytic domain expressed in Escherichia coli.
Series [5] has as its target T1, Protein deacetylase HDAC6. Put plainly: Inhibition of HDAC6 in human HCT116 cells assessed as inhibition of alpha-tubulin deacetylation. It is filed as cell-based, HCT-116.
Series [6] concerns the target Histone deacetylase 3 (Homo sapiens, UniProt O15379). Nature of the series: Inhibition of HDAC3.
Series [7] can be described thus: Metabolic stability in human HCT116 cells assessed as half life at 5 uM in presence of 10% FBS. It is filed as ADME, cell-based, HCT-116.
Series [8] concerns the target Histone deacetylase 1 (Homo sapiens, UniProt Q13547). Put plainly: Inhibition of HDAC1.

Chain of Histone deacetylase 1 (Q13547 whole entry): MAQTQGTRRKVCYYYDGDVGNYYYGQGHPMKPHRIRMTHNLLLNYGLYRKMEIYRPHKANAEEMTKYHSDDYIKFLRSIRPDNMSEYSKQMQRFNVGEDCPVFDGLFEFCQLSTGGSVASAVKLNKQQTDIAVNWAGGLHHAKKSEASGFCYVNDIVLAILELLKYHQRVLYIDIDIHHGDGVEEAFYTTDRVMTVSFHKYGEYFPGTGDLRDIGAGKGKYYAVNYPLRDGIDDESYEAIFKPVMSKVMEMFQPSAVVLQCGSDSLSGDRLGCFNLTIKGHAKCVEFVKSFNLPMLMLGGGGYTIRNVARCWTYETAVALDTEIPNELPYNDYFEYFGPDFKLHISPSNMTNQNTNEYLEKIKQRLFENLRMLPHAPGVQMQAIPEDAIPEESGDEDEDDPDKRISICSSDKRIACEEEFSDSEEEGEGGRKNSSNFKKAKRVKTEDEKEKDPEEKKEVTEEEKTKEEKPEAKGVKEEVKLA
Chain of Histone deacetylase 4 (P56524 whole entry, the tested form may be a part): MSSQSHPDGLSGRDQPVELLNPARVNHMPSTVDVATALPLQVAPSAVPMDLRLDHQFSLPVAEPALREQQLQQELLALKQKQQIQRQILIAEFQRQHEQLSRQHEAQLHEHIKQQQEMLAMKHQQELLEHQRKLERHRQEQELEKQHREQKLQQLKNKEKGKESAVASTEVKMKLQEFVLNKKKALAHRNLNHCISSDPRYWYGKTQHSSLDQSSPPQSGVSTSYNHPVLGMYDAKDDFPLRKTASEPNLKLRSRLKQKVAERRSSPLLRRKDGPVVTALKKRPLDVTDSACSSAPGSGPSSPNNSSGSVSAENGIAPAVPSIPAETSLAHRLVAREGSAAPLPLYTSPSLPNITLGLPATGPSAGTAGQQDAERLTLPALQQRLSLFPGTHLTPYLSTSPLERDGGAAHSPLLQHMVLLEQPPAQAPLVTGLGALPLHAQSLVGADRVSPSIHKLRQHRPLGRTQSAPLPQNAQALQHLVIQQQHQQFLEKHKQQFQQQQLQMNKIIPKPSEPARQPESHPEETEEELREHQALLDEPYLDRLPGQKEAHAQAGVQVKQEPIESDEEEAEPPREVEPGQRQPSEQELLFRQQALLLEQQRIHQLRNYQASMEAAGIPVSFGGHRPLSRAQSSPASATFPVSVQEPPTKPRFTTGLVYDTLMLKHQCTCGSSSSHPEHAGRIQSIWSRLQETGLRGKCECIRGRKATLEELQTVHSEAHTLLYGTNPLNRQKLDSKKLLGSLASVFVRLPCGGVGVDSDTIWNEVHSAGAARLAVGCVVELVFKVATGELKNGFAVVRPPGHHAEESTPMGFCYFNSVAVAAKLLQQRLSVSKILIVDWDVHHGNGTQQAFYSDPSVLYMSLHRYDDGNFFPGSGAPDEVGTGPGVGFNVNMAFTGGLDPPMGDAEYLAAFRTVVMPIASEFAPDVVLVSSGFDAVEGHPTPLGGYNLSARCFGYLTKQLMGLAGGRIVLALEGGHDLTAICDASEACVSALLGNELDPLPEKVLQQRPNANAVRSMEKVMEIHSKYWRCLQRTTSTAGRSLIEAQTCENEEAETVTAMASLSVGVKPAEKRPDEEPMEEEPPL
Chain of Histone deacetylase 3 (O15379 whole entry): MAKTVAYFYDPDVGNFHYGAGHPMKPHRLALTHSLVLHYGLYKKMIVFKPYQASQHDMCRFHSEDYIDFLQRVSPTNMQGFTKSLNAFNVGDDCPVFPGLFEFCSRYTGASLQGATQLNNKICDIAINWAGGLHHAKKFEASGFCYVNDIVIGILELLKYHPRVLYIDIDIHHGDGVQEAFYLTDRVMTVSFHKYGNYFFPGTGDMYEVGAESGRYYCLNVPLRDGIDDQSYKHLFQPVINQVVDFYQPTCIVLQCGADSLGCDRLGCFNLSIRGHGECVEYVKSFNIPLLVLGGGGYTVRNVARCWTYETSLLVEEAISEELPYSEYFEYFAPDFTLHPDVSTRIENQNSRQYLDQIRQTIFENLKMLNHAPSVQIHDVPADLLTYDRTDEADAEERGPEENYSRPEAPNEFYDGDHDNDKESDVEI

For `CS(=O)(=O)Cc1noc(-c2ccc(C(=O)C(F)(F)F)s2)n1`, the concentration for half-maximal inhibition (IC50) is 0.32 µM in series [1]; 0.03 µM in series [4]; 0.64 µM in series [5]; greater than 1 µM in series [6]; 2.47 µM in series [8]. Moreover, in series [2], the Ratio IC50 is greater than 70. In addition, in series [3], the half-life is greater than 120 min. In addition, the half-life at 5 µM in series [7] was 780 min.
As for `O=C(c1ccc(-c2ncc(-c3ccccc3)s2)s1)C(F)(F)F`, the IC50 in series [1] is 1.35 µM; in series [4], 1.5 µM; in series [8], greater than 10 µM.
`Cc1ccc(-c2nnc(-c3ccc(C(=O)C(F)(F)F)s3)o2)cc1`: the IC50 in series [1] is 0.6 µM; in series [4], 0.27 µM; in series [6], greater than 1 µM; in series [8] it was 1.8 µM.
Consider `O=C(c1ccc(-c2nc(-c3ccc(C(F)(F)F)cc3)no2)s1)C(F)(F)F`, for which the IC50 in series [1] was 11 µM; in series [4] it was 0.2 µM; in series [8], greater than 10 µM.
As to `CCNC(=O)c1ccc(C(=O)C(F)(F)F)s1`, in series [6], the IC50 is greater than 10 µM.
As for `O=C(c1ccc(-c2nc(COc3ccc(-c4nnco4)cc3)no2)s1)C(F)(F)F`, the half-life in series [3] was found to be 18 min. Besides, in series [8], inhibition was half-maximal at 4.8 µM (IC50).
Regarding `O=C(c1ccc(-c2nnc(-c3cccs3)o2)s1)C(F)(F)F`, the IC50 in series [1] was 0.16 µM; in series [4] it was 0.45 µM; in series [6], 0.5 µM; in series [8], 2.6 µM.
For the molecule `Cc1noc(-c2ccc(C(=O)C(F)(F)F)s2)n1`, the IC50 in series [1] was determined as 0.65 µM; in series [4], 0.075 µM; in series [6], 7.1 µM; in series [8] it was 7.6 µM. Also, in series [3], the half-life was greater than 120 min.
As to `O=C(c1ccc(-c2nc(-c3cccc(C(F)(F)F)c3)no2)s1)C(F)(F)F`, the IC50 in series [1] was 2.45 µM; in series [4], 0.32 µM; in series [6], greater than 1 µM; in series [8] it was 17.5 µM.
In the case of `O=C(c1ccc(-c2nc(-c3cccnc3)no2)s1)C(F)(F)F`, the IC50 turned out to be 0.84 µM in series [1], 0.07 µM in series [4] and 2.2 µM in series [8].
The corresponding values for `O=C(c1ccc(-c2nc(-c3ccccn3)no2)s1)C(F)(F)F` are 0.5 µM, 0.09 µM and 2.8 µM.
For the molecule `CC(C)(C)c1ccc(-c2noc(-c3ccc(C(=O)C(F)(F)F)s3)n2)cc1`, the IC50 in series [1] is 3.54 µM; in series [4] it was greater than 2 µM; in series [6], greater than 1 µM; in series [8], 16.6 µM.
On to `O=C(c1ccc(-c2nc(-c3cccs3)no2)s1)C(F)(F)F`, for which the values for the IC50 in series [1], in series [4] and in series [8] were 0.67 µM, 0.095 µM and 2.9 µM, respectively.
For the molecule `O=C(c1ccc(-c2nc(Cc3cccs3)no2)s1)C(F)(F)F`, the IC50 in series [1] turned out to be 0.17 µM; in series [4], 0.015 µM; in series [6] it was 0.63 µM; in series [8] it was 0.99 µM. For the same molecule, in series [2], the Ratio IC50 is 70. For the same molecule, the half-life in series [3] worked out at 35 min.
Consider `CCCS(=O)(=O)Cc1noc(-c2ccc(C(=O)C(F)(F)F)s2)n1`, for which the IC50 is 0.24 µM in series [1]; 0.03 µM in series [4]; 0.5 µM in series [5]; greater than 1 µM in series [6]; 2.22 µM in series [8]. In addition, the Ratio IC50 in series [2] is greater than 70. Further, the half-life in series [3] amounted to 45 min. Moreover, the half-life at 5 µM in series [7] is 720 min.
With `Cc1ccc(-c2noc(-c3ccc(C(=O)C(F)(F)F)s3)n2)cc1`, the concentration for half-maximal inhibition (IC50) came to 0.86 µM in series [1], 0.11 µM in series [4] and 6.8 µM in series [8].
Turning to `O=C(NCc1ccccc1)c1ccc(C(=O)C(F)(F)F)s1`, the half-inhibitory concentration (IC50) was found to be 0.37 µM in series [1], 0.243 µM in series [4], 0.52 µM in series [6] and 0.467 µM in series [8].
On to `O=C(c1ccc(-c2nc(CS(=O)(=O)Cc3ccc(F)cc3)no2)s1)C(F)(F)F`, for which the half-inhibitory concentration (IC50) in series [1] is 0.7 µM; in series [4], 0.06 µM; in series [6] it was greater than 1 µM; in series [8], 6.55 µM. The half-life in series [3] worked out at 35 min. Besides, the half-life at 5 µM in series [7] is 330 min.
Regarding `O=C1COc2ccccc2N1Cc1noc(-c2ccc(C(=O)C(F)(F)F)s2)n1`, the IC50 in series [1] was 0.41 µM; in series [4], 0.015 µM; in series [6], greater than 1 µM; in series [8], 1.17 µM. Further, in series [2], the Ratio IC50 is greater than 75. Besides, the half-life in series [3] was found to be 25 min.
With `CN(Cc1ccccc1)C(=O)c1ccc(C(=O)C(F)(F)F)s1`, the half-life in series [3] stood at 15 min.
As to `Cc1cccc(-c2noc(-c3ccc(C(=O)C(F)(F)F)s3)n2)c1`, the IC50 was 0.68 µM in series [1], 0.28 µM in series [4], greater than 1 µM in series [6] and 6.54 µM in series [8].
As to `O=C(c1ccc(-c2nc(-c3ccc(Cl)cc3Cl)no2)s1)C(F)(F)F`, the IC50 is 3 µM in series [1], 0.24 µM in series [4] and greater than 5 µM in series [8].
Turning to `O=C(c1ccc(-c2nc(-c3ccc(F)cc3)no2)s1)C(F)(F)F`, the IC50 was 0.27 µM in series [1], 0.22 µM in series [4], greater than 1 µM in series [6] and 5.9 µM in series [8].
`O=C(c1ccc(-c2nc(-c3ccc(F)cc3F)no2)s1)C(F)(F)F`: the IC50 was 0.58 µM in series [1], 0.12 µM in series [4], greater than 1 µM in series [6] and 4.2 µM in series [8]. In series [3], the half-life was greater than 120 min.
`O=C(c1ccc(-c2nc(CS(=O)(=O)c3cccs3)no2)s1)C(F)(F)F`: the IC50 in series [1] is 0.52 µM; in series [4], 0.035 µM; in series [6], greater than 1 µM; in series [8], 3.89 µM. For the same molecule, the Ratio IC50 in series [2] was greater than 100. In addition, in series [3], the half-life worked out at 44 min. In series [7], the half-life at 5 µM was 360 min.
For the molecule `O=C(c1ccc(-c2nnc(-c3ccccc3)o2)s1)C(F)(F)F`, the IC50 was 0.33 µM in series [1], 0.42 µM in series [4], 0.5 µM in series [6] and 2.97 µM in series [8].
The like results for `O=C(c1ccc(-c2nc(-c3ccccc3)no2)s1)C(F)(F)F` were, in that order, 0.58 µM, 0.11 µM, greater than 1 µM and 7.4 µM.
Take `O=C(Cc1noc(-c2ccc(C(=O)C(F)(F)F)s2)n1)N1CCCC1`: the half-inhibitory concentration (IC50) is 0.71 µM in series [1], 0.06 µM in series [4] and 5.9 µM in series [8]. Also, the Ratio IC50 in series [2] is greater than 75.
For the molecule `O=C(c1ccc(-c2nc(-c3ccncc3)no2)s1)C(F)(F)F`, the IC50 in series [1] is 0.57 µM; in series [4], 0.59 µM; in series [8] it was greater than 10 µM.
